Data from US20250206745A1, “PYRROLOPYRIDAZINE DERIVATIVES AND RELATED USES” (NodThera Limited, priority 2023, published 2025).
Counter-ions that a name gives are not always drawn.

What was measured:
[1] = test system: IL-1β release upon NLRP3 activation in peripheral blood mononuclear cells (PBMC); test: PBMC IC50 Determination Assay; assay type: cell-based; conditions: Homo sapiens; inhibition of IL-1β release; PBMC primed with LPS, stimulated with ATP or nigericin; ELISA or HTRF
Method: The compounds of the present disclosure were tested for their inhibitory activity against IL-1β release upon NLRP3 activation in peripheral blood mononuclear cells (PBMC).
Protocol A. PBMC were isolated from buffy coats by density gradient centrifugation on Histopaque-1077 (Sigma, cat no. 10771). Isolated cells were seeded into the wells of a 96-well plate and incubated for 3 h with lipopolysaccharide (LPS). Following medium exchange, the compounds of the present disclosure were added (a single compound per well) and the cells were incubated for 30 min. Next, the cells were stimulated either with ATP (5 mM) or nigericin (10 μM) for 1 h and the cell culture media from the wells were collected for further analysis.
The release of IL-1β into the media was determined by a quantitative detection of IL-1β in the media using an IL-1β enzyme-linked immunosorbent assay (ELISA) Ready-SET-Go!, eBioscience cat. No. 88-7261-88. Briefly, in a first step, high affinity binding plates (Corning, Costar 9018 or NUNC Maxisorp Cat No. 44-2404) were coated overnight at 4° C. with specific capture antibody included in the kit (anti-human IL-1β ref. 14-7018-68). Subsequently, plates were blocked with blocking buffer for 1 h at room temperature (rt) and after washing with a buffer (PBS with 0.05% Tween-20) incubated with protein standard and culture media. After 2 h of incubation at rt, plates were washed and incubated with biotinylated detection antibody included in the kit (anti-human IL-1β Biotin ref. 33-7110-68) for 1 h at rt. Plates were washed and incubated with HRP-streptavidin for 30 min at rt and washed again. The signal was developed after addition of 3,3′,5,5′-tetramethylbenzidine-peroxidase (TMB) until colour appeared and the reaction was stopped by 2 M H2SO4. A microplate spectrophotometer (BioTek) was used to detect signals with 450 nm. The detection range of IL-1β ELISA was […].
Protocol B. PBMC were isolated from buffy coats by density gradient centrifugation on Histopaque-1077 (Sigma, cat no. 10771). Isolated cells were seeded into the wells (280,000 cells/well) of a 96-well plate and incubated for 3 h with lipopolysaccharide (LPS, 1 μg/mL diluted 1000× from a 1 mg/mL stock solution). The compounds of the present disclosure were added (a single compound per well) and the cells were incubated for 30 min. Next, the cells were stimulated with ATP (5 mM final concentration diluted 20× from a 100 mM stock solution) for 1 h and the cell culture media from the wells were collected for further analysis.
The release of IL-1β into the media was determined by quantitative detection of IL-1β in the media using HTRF®, CisBio cat. No. 62HIL1BPEH. Briefly, cell culture supernatant were dispensed directly into the assay plate containing antibodies labelled with the HTRF® donor and acceptor. A microplate spectrophotometer (BMG) was used to detect signals at 655 nm and 620 nm. The detection range of IL-1β HTRF® was 39-6500 pg/mL.

[2] = test system: IL-1β release upon NLRP3 activation in phorbol 12-myristate 13-acetate (PMA)-differentiated THP-1 cells; test: THP-1 IC50 Determination Assay; assay type: cell-based; conditions: Homo sapiens, inhibition of IL-1β release, LPS, nigericin, ELISA
Method: The compounds of the present disclosure were tested for their inhibitory activity against IL-1β release upon NLRP3 activation in phorbol 12-myristate 13-acetate (PMA)-differentiated THP-1 cells.
THP-1 cells stored in liquid nitrogen were thawed in a 37° C. water bath. The cells were added into complete RPMI 1640 medium (FBS (56 mL), 100× Penicillin-Streptomycin (5.6 mL) and 0.05 mM 2-Mercaptoethanol in RPMI 1640 Medium (500 mL)) and centrifuged for 5 min at 1000 rpm. The supernatant was discarded and the cells resuspended into new cell culture medium for culturing. Cells were cultured in cell culture medium and passaged every 3-4 days to maintain cell density between 4×10^5 and 1.5×10^6 cells/mL. The cells were diluted to 0.8×10^6 cells/mL and grown in a T150 flask with PMA (final concentration 5 ng/mL). The flask was incubated in a 37° C. incubator with a humidified atmosphere of 5% CO2 for −40 hours. After −40 hours of PMA differentiation, the flask was washed with DPBS. Cells were digested with Trypsin LE for about 5 min at room temperature, and digestion was terminated using complete RPMI 1640 medium. Cells were centrifuged and resuspended (1000 rpm, 3 min). The supernatant was discarded and cells washed with DPBS, centrifuged and resuspended cells (1000 rpm, 5 min). Cells were plated at 30,000 cells/well in a 384-well PP plate and treated with 25 ng/mL LPS solution diluted in serum-free medium (45 μL). The plate was incubated in a 37° C. incubator with a humidified atmosphere of 5% CO2 for 2 hours. Compounds (from 10 mM DMSO solution) were dispensed and serially diluted by 1:3 eight times, with final 0.5% DMSO concentration. NLRP3 inflammasome was activated with nigericin (5 μL), the plate was centrifuged (1000 rpm, 30 s) and incubated in a 37° C. incubator with a humidified atmosphere of […] for 2 hours. 35 μL/well of supernatant was removed and IL-1β levels determined by ELISA assay (Mabtech 3416-1H-20) according to the manufacturer's instructions.

Row | IC50 [2] [nM] | SMILES | IC50 [1] [nM]
1 | 100 to 300 | Cc1cc(Cl)cc(O)c1-c1cc2ccn(CC3CCN(CC(F)F)CC3)c2nn1 [Compound 10, 5-Chloro-2-(7-{[1-(2,2-difluoroethyl)piperidin-4-yl]methyl}-7H-pyrrolo[2,3-c]pyridazin-3-yl)-3-methylphenol hydrochloride] | 100 to 300
2 | 100 to 300 | Cc1cc(Cl)cc(O)c1-c1cc2ccn(CC3CCN(C)C(=O)C3)c2nn1 (stereo not shown) [Compound 11, 4-{[3-(4-Chloro-2-hydroxy-6-methylphenyl)-7H-pyrrolo[2,3-c]pyridazin-7-yl]methyl}-1-methylpiperidin-2-one] | 100 to 300
3 | 100 to 300 | Cc1cc(Cl)cc(O)c1-c1cc2ccn(CCN3CCOCC3)c2nn1 [Compound 12, 5-Chloro-3-methyl-2-{7-[2-(morpholin-4-yl)ethyl]-7H-pyrrolo[2,3-c]pyridazin-3-yl}phenol hydrochloride] | 300 to 1000
4 | 300 to 1000 | Cc1cc(Cl)cc(O)c1-c1cc2ccn(CCN3CCN(C)CC3)c2nn1 [Compound 13, 5-Chloro-3-methyl-2-{7-[2-(4-methylpiperazin-1-yl)ethyl]-7H-pyrrolo[2,3-c]pyridazin-3-yl}phenol dihydrochloride] | 300 to 1000
5 | 100 to 300 | Cc1cc(Cl)cc(O)c1-c1cc2ccn(CC3CCCCN3C)c2nn1 (stereo not shown) [Compound 14, 5-Chloro-3-methyl-2-{7-[(1-methylpiperidin-2-yl)methyl]-7H-pyrrolo[2,3-c]pyridazin-3-yl}phenol] | 100 to 300
6 | 100 to 300 | Cc1cc(Cl)cc(O)c1-c1cc2ccn(CC3CCN(C4COC4)CC3)c2nn1 [Compound 15, 5-Chloro-3-methyl-2-(7-{[1-(oxetan-3-yl)piperidin-4-yl]methyl}-7H-pyrrolo[2,3-c]pyridazin-3-yl)phenol] | 100 to 300
7 | 100 to 300 | Cc1cc(Cl)cc(O)c1-c1cc2ccn(CC3CCOC3)c2nn1 (stereo not shown) [Compound 16, 5-Chloro-3-methyl-2-{7-[(oxolan-3-yl)methyl]-7H-pyrrolo[2,3-c]pyridazin-3-yl}phenol] | 100 to 300
8 | 100 to 300 | COC(=O)N1CCC(Cn2ccc3cc(-c4c(C)cc(Cl)cc4O)nnc32)CC1 [Compound 17, Methyl 4-{[3-(4-chloro-2-hydroxy-6-methylphenyl)-7H-pyrrolo[2,3-c]pyridazin-7-yl]methyl}piperidine-1-carboxylate] | 100 to 300
9 | 100 to 300 | COCCN1CCC(Cn2ccc3cc(-c4c(C)cc(Cl)cc4O)nnc32)CC1 [Compound 18, 5-Chloro-2-(7-{[1-(2-methoxyethyl)piperidin-4-yl]methyl}-7H-pyrrolo[2,3-c]pyridazin-3-yl)-3-methylphenol] | 100 to 300
10 | 300 to 1000 | CNC(=O)Cn1ccc2cc(-c3c(C)cc(Cl)cc3O)nnc21 [Compound 19, 2-[3-(4-Chloro-2-hydroxy-6-methylphenyl)-7H-pyrrolo[2,3-c]pyridazin-7-yl]-N-methylacetamide] | 300 to 1000
11 | 300 to 1000 | CNC(=O)CCn1ccc2cc(-c3c(C)cc(Cl)cc3O)nnc21 [Compound 20, 3-[3-(4-Chloro-2-hydroxy-6-methylphenyl)-7H-pyrrolo[2,3-c]pyridazin-7-yl]-N-methylpropanamide] | 300 to 1000
12 | 300 to 1000 | COCCn1ccc2cc(-c3c(C)cc(Cl)cc3O)nnc21 [Compound 21, 5-Chloro-2-[7-(2-methoxyethyl)-7H-pyrrolo[2,3-c]pyridazin-3-yl]-3-methylphenol] | 100 to 300
13 | 300 to 1000 | Cc1cc(Cl)cc(O)c1-c1cc2ccn(CCN(C)C)c2nn1 [Compound 22, 5-Chloro-2-{7-[2-(dimethylamino)ethyl]-7H-pyrrolo[2,3-c]pyridazin-3-yl}-3-methylphenol hydrochloride] | 300 to 1000
14 | 300 to 1000 | COCCCn1ccc2cc(-c3c(C)cc(Cl)cc3O)nnc21 [Compound 23, 5-Chloro-2-[7-(3-methoxypropyl)-7H-pyrrolo[2,3-c]pyridazin-3-yl]-3-methylphenol] | 300 to 1000
15 | 100 to 300 | Cc1cc(Cl)cc(O)c1-c1cc2ccn(CC3CCCCO3)c2nn1 (stereo not shown) [Compound 25, 5-Chloro-3-methyl-2-{7-[(oxan-2-yl)methyl]-7H-pyrrolo[2,3-c]pyridazin-3-yl}phenol] | 100 to 300
16 | 300 to 1000 | Cc1cc(Cl)cc(O)c1-c1cc2ccn(CC3CCN(CC#N)CC3)c2nn1 [Compound 26, 2-(4-{[3-(4-Chloro-2-hydroxy-6-methylphenyl)-7H-pyrrolo[2,3-c]pyridazin-7-yl]methyl}piperidin-1-yl)acetonitrile] | 300 to 1000
17 | 100 to 300 | Cc1cc(Cl)cc(O)c1-c1cc2ccn(CC3(F)CCN(C)CC3)c2nn1 [Compound 27, 5-Chloro-2-{7-[(4-fluoro-1-methylpiperidin-4-yl)methyl]-7H-pyrrolo[2,3-c]pyridazin-3-yl}-3-methylphenol hydrochloride] | 30 to 100
18 | 300 to 1000 | Cc1cc(Cl)cc(O)c1-c1cc2ccn(CC3CN(C)C3)c2nn1 [Compound 28, 5-Chloro-3-methyl-2-{7-[(1-methylazetidin-3-yl)methyl]-7H-pyrrolo[2,3-c]pyridazin-3-yl}phenol hydrochloride] | 300 to 1000
19 | 1000 to 3000 | Cc1cc(Cl)cc(O)c1-c1cc2ccn(CCCN(C)C)c2nn1 [Compound 29, 5-Chloro-2-{7-[3-(dimethylamino)propyl]-7H-pyrrolo[2,3-c]pyridazin-3-yl}-3-methylphenol hydrochloride] | 1000 to 3000
20 | 300 to 1000 | Cc1cc(Cl)cc(O)c1-c1cc2ccn(CC(=O)N3CCCC3)c2nn1 [Compound 30, 2-[3-(4-Chloro-2-hydroxy-6-methylphenyl)-7H-pyrrolo[2,3-c]pyridazin-7-yl]-1-(pyrrolidin-1-yl)ethan-1-one] | 300 to 1000
21 | 100 to 300 | Cc1cc(Cl)cc(O)c1-c1cc2ccn(CC3CCN(S(C)(=O)=O)CC3)c2nn1 [Compound 31, 5-Chloro-2-{7-[(1-methanesulfonylpiperidin-4-yl)methyl]-7H-pyrrolo[2,3-c]pyridazin-3-yl}-3-methylphenol] | 100 to 300
22 | 100 to 300 | Cc1cc(Cl)cc(O)c1-c1cc2ccn(CC(=O)N(C)C)c2nn1 [Compound 32, 2-[3-(4-Chloro-2-hydroxy-6-methylphenyl)-7H-pyrrolo[2,3-c]pyridazin-7-yl]-N,N-dimethylacetamide] | 100 to 300
23 | 300 to 1000 | Cc1cc(Cl)cc(O)c1-c1cc2ccn(CCN3CCCC(F)C3)c2nn1 (stereo not shown) [Compound 33, 5-Chloro-2-{7-[2-(3-fluoropiperidin-1-yl)ethyl]-7H-pyrrolo[2,3-c]pyridazin-3-yl}-3-methylphenol hydrochloride] | 30 to 100
